We go through ten compounds from patent US20260274832A1, “COMPOUNDS AND THEIR USE IN TREATING CANCER” (ASTRAZENECA AB, priority 2023, published 2026).

Test [1] deals with T1, AR (AR-full length) in LNCaP cells (Homo sapiens, UniProt P10275, T878A).
T1 construct: the prostate cancer cell line LNCaP (expressing AR-full length); endogenous in cells; host or cells: LNCaP
The test can be described thus: LNCaP Androgen Receptor Imaging Assay (immunofluorescence of endogenous nuclear AR). The note with it: 24 h incubation; for DC50: concentration giving 50% of maximum degradation of AR per curve fit, single experiment or average of two or more; for Dmax: LNCaP; for Dmax / LNCaP AR Degradation Dmax: maximum degradation observed, normalized as % of positive control (prior art AR PROTAC at 3 μM). It counts as cell-based. As for the experimental part: This cell-based imaging assay uses immuno-fluorescence to measure endogenous nuclear AR staining in the prostate cancer cell line LNCaP (expressing AR-full length). The purpose of the assay is to identify compounds that regulate AR protein level according to the protocol laid out in the steps below.
(§1) All work was performed in a sterile tissue culture hood up to the point of cell fixation. LNCaP cells were cultured at 6-8×10^6 per T175 flask and split every 3-4 days. Medium: RPMI (R7638, VWR Sigma) containing 10% FCS and 1% glutamine. Cells were plated in black wall transparent bottom plates at a density of 12,000 cells (Cedex™ Cell counter, Beckmann & Coulter), 40 μL per well, using a Multidrop (ThermoFisher).
(§2) Cells were dosed with test compound diluted in DMSO using an Echo 555/655™ (Labcyte) and the final concentration of DMSO in the well was 0.3%. A neutral control (DMSO) and a positive AR degrader control at 3 μM (a prior art AR PROTAC) were included. The Echo uses acoustic technology to perform direct microplate-to-microplate transfers of DMSO compound solutions to assay plates. The system can be programmed to transfer volumes as low as 2.5 nL in multiple increments between microplates and in so doing generates a serial dilution of compound in the assay plate which is then back-filled to normalise the DMSO concentration across the dilution range. Compounds were dispensed as a 12 point dose response with indicated concentrations. The plates were incubated at 37° C./5% CO2 for 24 h and then fixed and stained as below. 40 μL of 8% paraformaldehyde solution (v/v) in phosphate buffered saline (PBS) was added on top of the media already in the well using a Multidrop to fix plates giving a final concentration of 4% PFA (v/v) for 20-30 minutes (keep in fume hood to minimise PFA exposure). After 20-30 mins, the plates were washed with 3×PBS using a BioTek washer in a fume hood. A shake out of remaining volume in the well was performed to ensure best removal of remaining PBS. At this plates could be stored in PBS after washing for at least 3 days at 4° C., if so, PBS was removed by the BioTek before continuing with the next step.
(§3) The cells were incubated with a Mouse monoclonal Anti-AR antibody AR441 (DAKO M3562) (1:1000), diluted in modified blocking buffer (PBS+1% BSA+0.1% TritonX); 15 μL/well for 2 h at RT. The plates were then washed with 3×PBS using a BioTek washer. A shake out of remaining volume in the well was performed to ensure best removal of remaining PBS. Cells were then incubated with Goat anti-mouse secondary antibody 488 (Invitrogen A11001) (1:500) and nuclear stain, DRAQ5 (Abcam Ab108410) (1:2000) diluted in modified blocking buffer for 45 mins at room temperature 15 μL/well. Plates are then washed with 3×PBS using a BioTek washer, without final aspiration, and sealed with black plate seals. Plates could be stored after staining for three days at 4° C. before read if required.
(§4) Plates are read using a Cellomics Cellinsight to measure the Androgen Receptor level in each well. The data is exported into Genedata to perform curve fitting analysis. All data are normalized as % of positive control and the BellFit method automatically determines the correct fit method based on the presence of hook effect, choosing the BellFit when there is a hook and HillFit when there is no hook. Down-regulation of AR is expressed as a DC50 value and determined by calculation of the concentration of compound that is required to give 50% of maximum degradation of AR as per the curve fit for that compound. The maximum degradation observed for each compound is expressed as Dmax. The AR degradation data for compounds is shown in the table below and may be a result from a single experiment or an average of two or more experiments.

For test [2], the target named is T2, AR (L702H) in LNCaP cells (Homo sapiens, UniProt P10275, L702H/T878A).
T2 construct: engineered to introduce the mutation L702H into the AR gene using CRISPR/Cas9; endogenous in cells; host or cells: LNCaP cells edited by CRISPR/Cas9 at the AR gene
The test can be described thus: LNCaP Androgen Receptor L702H Imaging Assay (LNCaP cells engineered by CRISPR/Cas9). In kind it is cell-based. The note with it: LNCaP cells with AR L702H mutation, 24 h incubation; for DC50: concentration giving 50% of maximum degradation of AR (L702H) per curve fit; for Dmax: LNCaP; for Dmax / LNCaP AR (L702H) Degradation Dmax: maximum degradation observed, normalized as % of positive control. As for the experimental part: as §1, §2, §3, §4
At this stage, anti-androgen therapy is largely ineffective due to AR amplification, overexpression or point mutation. One of the point mutations observed in patient populations is L702H in the AR Ligand Binding Domain. LNCAP cells have been engineered to introduce the mutation L702H into the AR gene using CRISPR/Cas9. The previously described imaging-based AR assay will monitor nuclear AR (L702H) levels in these cells to identify compounds that regulate AR (L702H). […]

T2 sequence (P10275 whole entry L702H/T878A): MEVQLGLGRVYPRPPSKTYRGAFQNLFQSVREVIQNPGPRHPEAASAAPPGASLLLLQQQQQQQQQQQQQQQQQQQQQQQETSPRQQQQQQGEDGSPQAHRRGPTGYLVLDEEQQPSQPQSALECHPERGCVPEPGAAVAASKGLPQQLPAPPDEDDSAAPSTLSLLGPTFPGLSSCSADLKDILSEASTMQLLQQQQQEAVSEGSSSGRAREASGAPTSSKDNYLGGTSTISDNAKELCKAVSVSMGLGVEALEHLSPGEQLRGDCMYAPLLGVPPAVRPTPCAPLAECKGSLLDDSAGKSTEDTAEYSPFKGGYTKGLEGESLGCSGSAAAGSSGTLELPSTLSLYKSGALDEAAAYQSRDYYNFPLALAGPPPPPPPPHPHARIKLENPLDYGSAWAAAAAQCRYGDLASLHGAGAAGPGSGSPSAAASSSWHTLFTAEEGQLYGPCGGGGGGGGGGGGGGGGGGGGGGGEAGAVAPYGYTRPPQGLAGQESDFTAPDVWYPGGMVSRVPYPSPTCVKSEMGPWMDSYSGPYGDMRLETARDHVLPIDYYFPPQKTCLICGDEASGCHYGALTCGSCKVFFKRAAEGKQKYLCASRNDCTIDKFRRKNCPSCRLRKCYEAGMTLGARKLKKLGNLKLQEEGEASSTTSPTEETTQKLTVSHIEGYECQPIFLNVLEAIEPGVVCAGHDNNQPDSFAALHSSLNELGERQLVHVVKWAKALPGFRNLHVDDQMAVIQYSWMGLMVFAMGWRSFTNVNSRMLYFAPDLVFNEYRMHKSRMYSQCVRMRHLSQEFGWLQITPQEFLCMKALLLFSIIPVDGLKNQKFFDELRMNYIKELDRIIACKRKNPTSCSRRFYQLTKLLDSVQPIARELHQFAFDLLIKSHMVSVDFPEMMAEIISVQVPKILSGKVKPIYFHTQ
T2 sequence (Q96SW2 whole entry partner): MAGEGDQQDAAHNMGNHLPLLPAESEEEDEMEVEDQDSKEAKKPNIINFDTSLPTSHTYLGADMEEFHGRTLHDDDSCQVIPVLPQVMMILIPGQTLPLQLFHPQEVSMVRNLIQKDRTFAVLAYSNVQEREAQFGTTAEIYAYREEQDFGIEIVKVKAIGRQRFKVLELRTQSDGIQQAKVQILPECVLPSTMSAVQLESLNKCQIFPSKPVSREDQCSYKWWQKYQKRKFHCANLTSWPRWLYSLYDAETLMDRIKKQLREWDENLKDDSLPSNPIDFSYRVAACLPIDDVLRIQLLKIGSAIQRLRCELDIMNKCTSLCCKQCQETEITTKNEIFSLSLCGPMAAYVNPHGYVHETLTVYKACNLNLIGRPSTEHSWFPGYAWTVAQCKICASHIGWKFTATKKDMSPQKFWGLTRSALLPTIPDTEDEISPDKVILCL
T1 sequence (P10275 whole entry T878A): as the sequence (P10275 whole entry L702H/T878A) above, with H702L counted along it
T1 sequence (Q96SW2 whole entry partner): as the sequence (Q96SW2 whole entry partner) above

In the case of `N#Cc1c[nH]c2c(N3CCC(c4ccc(N5CCC(CN6CCN(c7ccc8c(c7)CN(C7CCC(=O)NC7=O)C8=O)CC6)CC5)cc4)CC3)ccc(F)c12` (single isomer, unassigned) [Example 3, 7-(4-{4-[4-({4-[2-(2,6-Dioxopiperidin-3-yl)-1-oxo-2,3-dihydro-1H-isoindol-5-yl]piperazin-1-yl}methyl)piperidin-1-yl]phenyl}piperidin-1-yl)-4-fluoro-1H-indole-3-carbonitrile], in test [1], the DC50 came to 0.018 µM and the Dmax turned out to be 85%. Further, in test [2], it took 0.017 µM to reach half-maximal degradation (DC50) and the Dmax came out at 99%.
`N#Cc1c[nH]c2c(N3CCC(c4ccc(N5CCC(CN6CCN(c7ccc8c(c7)CN(C7CCC(=O)NC7=O)C8=O)CC6)CC5)cc4)CC3)ccc(F)c12` (single isomer, unassigned) [Example 4, 7-(4-{4-[4-({4-[2-(2,6-Dioxopiperidin-3-yl)-1-oxo-2,3-dihydro-1H-isoindol-5-yl]piperazin-1-yl}methyl)piperidin-1-yl]phenyl}piperidin-1-yl)-4-fluoro-1H-indole-3-carbonitrile]: in test [1], the 50% degradation concentration (DC50) is 0.006 µM and the “LNCaP AR Degradation Dmax” value is on record as 96%. In test [2], the half-maximal degradation concentration (DC50) stood at 0.005 µM and the “LNCaP AR (L702H) Degradation Dmax” value worked out at 106%.
As for `COc1cc(N2CCN(CC3CCN(c4ccc(C5CCN(c6ccc(Cl)c7c(C#N)c[nH]c67)CC5)cc4)CC3)CC2)cc2c1C(=O)N(C1CCC(=O)NC1=O)C2` (single isomer, unassigned) [Example 16, 4-Chloro-7-[4-(4-{4-[(4-{2-[(3R*)-2,6-dioxopiperidin-3-yl]-7-methoxy-1-oxo-2,3-dihydro-1H-isoindol-5-yl}piperazin-1-yl)methyl]piperidin-1-yl}phenyl)piperidin-1-yl]-1H-indole-3-carbonitrile], in test [1], the 50% degradation concentration (DC50) is 0.012 µM and the “LNCaP AR Degradation Dmax” value came to 77%. In test [2], this compound showed a half-maximal degradation concentration (DC50) of 0.024 µM and a Dmax of 84%.
Consider `COc1cc(N2CCN(CC3CCN(c4ccc(C5CCN(c6ccc(Cl)c7c(C#N)c[nH]c67)CC5)cc4)CC3)CC2)cc2c1C(=O)N(C1CCC(=O)NC1=O)C2` (single isomer, unassigned) [Example 17, 4-Chloro-7-[4-(4-{4-[(4-{2-[(3S*)-2,6-dioxopiperidin-3-yl]-7-methoxy-1-oxo-2,3-dihydro-1H-isoindol-5-yl}piperazin-1-yl)methyl]piperidin-1-yl}phenyl)piperidin-1-yl]-1H-indole-3-carbonitrile], for which, in test [1], the half-maximal degradation concentration (DC50) is 0.003 µM and the “LNCaP AR Degradation Dmax” value turned out to be 100%. For the same compound, in test [2], the DC50 was 0.004 µM and the “LNCaP AR (L702H) Degradation Dmax” value came to 102%.
Take `N#Cc1c[nH]c2c(N3CCC(c4ccc(N5CCC(CN6CCN(c7ccc8c(c7)CN(C7CCC(=O)NC7=O)C8=O)CC6)CC5)cc4)CC3)ccc(Cl)c12` (single isomer, unassigned) [Example 18, 4-Chloro-7-[4-(4-{4-[(4-{2-[(3R*)-2,6-dioxopiperidin-3-yl]-1-oxo-2,3-dihydro-1H-isoindol-5-yl}piperazin-1-yl)methyl]piperidin-1-yl}phenyl)piperidin-1-yl]-1H-indole-3-carbonitrile]: in test [1], it took 0.014 µM to reach half-maximal degradation (DC50) and the Dmax worked out at 93%. In test [2], this compound yielded a 50% degradation concentration (DC50) of 0.018 µM and a Dmax of 96%.
In the case of `N#Cc1c[nH]c2c(N3CCC(c4ccc(N5CCC(CN6CCN(c7ccc8c(c7)CN(C7CCC(=O)NC7=O)C8=O)CC6)CC5)cc4)CC3)ccc(Cl)c12` (single isomer, unassigned) [Example 19, 4-Chloro-7-[4-(4-{4-[(4-{2-[(3S*)-2,6-dioxopiperidin-3-yl]-1-oxo-2,3-dihydro-1H-isoindol-5-yl}piperazin-1-yl)methyl]piperidin-1-yl}phenyl)piperidin-1-yl]-1H-indole-3-carbonitrile], in test [1], it took 0.004 µM to reach half-maximal degradation (DC50) and the “LNCaP AR Degradation Dmax” value amounted to 102%. Moreover, in test [2], it took 0.005 µM to reach half-maximal degradation (DC50) and the “LNCaP AR (L702H) Degradation Dmax” value was determined as 102%.
For `COc1nc(N2CCN(CC3CCN(c4ccc(C5CCN(c6ccc(Cl)c7c(C#N)c[nH]c67)CC5)cc4)CC3)CC2)cc2c1C(=O)N(C1CCC(=O)NC1=O)C2` (single isomer, unassigned) [Example 35, 4-Chloro-7-[4-(4-{4-[(4-{2-[(3R*)-2,6-dioxopiperidin-3-yl]-4-methoxy-3-oxo-2,3-dihydro-1H-pyrrolo[3,4-c]pyridin-6-yl}piperazin-1-yl)methyl]piperidin-1-yl}phenyl)piperidin-1-yl]-1H-indole-3-carbonitrile], the 50% degradation concentration (DC50) in test [1] was found to be 0.019 µM; in test [2] it was 0.029 µM. Moreover, the Dmax was determined as 84% in test [1] and 91% in test [2].
For the compound `COc1nc(N2CCN(CC3CCN(c4ccc(C5CCN(c6ccc(Cl)c7c(C#N)c[nH]c67)CC5)cc4)CC3)CC2)cc2c1C(=O)N(C1CCC(=O)NC1=O)C2` (single isomer, unassigned) [Example 36, 4-Chloro-7-[4-(4-{4-[(4-{2-[(3S*)-2,6-dioxopiperidin-3-yl]-4-methoxy-3-oxo-2,3-dihydro-1H-pyrrolo[3,4-c]pyridin-6-yl}piperazin-1-yl)methyl]piperidin-1-yl}phenyl)piperidin-1-yl]-1H-indole-3-carbonitrile], in test [1], half-maximal degradation (DC50) was put at 0.005 µM and the “LNCaP AR Degradation Dmax” value is recorded as 102%. For the same compound, in test [2], half-maximal degradation (DC50) was put at 0.007 µM and the “LNCaP AR (L702H) Degradation Dmax” value amounted to 102%.
In test [1], `COc1nc(N2CCN(CC3CCN(c4ccc([C@@H]5CCCN(c6ccc(Cl)c7c(C#N)c[nH]c67)C5)cc4)CC3)CC2)cc2c1C(=O)N(C1CCC(=O)NC1=O)C2` (single isomer, unassigned) [Example 39, 4-Chloro-7-[(3S)-3-(4-{4-[(4-{2-[(3R*)-2,6-dioxopiperidin-3-yl]-4-methoxy-3-oxo-2,3-dihydro-1H-pyrrolo[3,4-c]pyridin-6-yl}piperazin-1-yl)methyl]piperidin-1-yl}phenyl)piperidin-1-yl]-1H-indole-3-carbonitrile] gave a 50% degradation concentration (DC50) of 0.016 µM and a Dmax of 88%. Besides, in test [2], half-maximal degradation (DC50) was put at 0.033 µM and the Dmax turned out to be 99%.
`N#Cc1c[nH]c2c(C3CCCN(c4ccc(N5CCC(CN6CCN(c7ccc8c(c7)CN(C7CCC(=O)NC7=O)C8=O)CC6)CC5)cc4)C3)ccc(Cl)c12` (single isomer, unassigned) [Example 94, 4-Chloro-7-[(3S*)-1-{4-[4-({4-[2-(2,6-dioxopiperidin-3-yl)-1-oxo-2,3-dihydro-1H-isoindol-5-yl]piperazin-1-yl}methyl)piperidin-1-yl]phenyl}piperidin-3-yl]-1H-indole-3-carbonitrile]: the 50% degradation concentration (DC50) in test [1] is above 3 µM.

Usually DC50 stands for the concentration at which degradation of the target reaches its halfway point. Read a high DC50 as a less potent degrader. In general, Dmax refers to the largest share of the target that was removed. A low value points to a partial loss of target.
